Measured values taken from patent publication US6548553B2, “Styryl sulfone anticancer agents” (Temple University-of the Commonwealth System of Higher …, priority 1997, dated 2003).

Key:
[1] = tested on: MCF-7, HTB126, T470 and 435 cells; test: Trypan blue exclusion viability assay, breast tumor cell lines; type: cell-based; settings: 48 hours
Procedure: (§1) The effect of FR-20 on the growth of normal and tumor cells of breast and prostate was examine utilizing nine cell lines: NIH/3T3 and HFL (normal fibroblast cell lines); MCF-7 and 361 ([…] breast tumor cell lines); BT-20, 435 and SKBR-3 ([…] breast tumor cell lines); LnCaP (androgen sensitive prostate tumor cell line); PC-3 and DU-145 (androgen insensitive prostate tumor cell line).
(§2) The cells were grown as in Example 22, A. FR-20 was dissolved in DMSO and added to the cells at 2.5 μM and 5.0 μM concentration. To control cells, DMSO was added equivalent to the volume of solvent (DMSO) present at the highest concentration of the compound. The activity of the compound was evaluated after 48 hours by Trypan blue exclusion. […] Nearly 50% of SKBR-3 and BT-20 cells were dead at 2.5 μM and 75% at 5.0 μM concentration of the compound. […] FRI-20 had profound effect on the viability of androgen-dependent LnCaP prostate tumor cell line when compared to androgen-independent DU-145 and PC-3 prostate cell lines. At […] FRI-20, 80% of LnCaP, 40% of PC-3 and 20% of DU-145 cells were killed. At […] FRI-20, 72% of LnCaP, 47% of PC-3 and 40% of DU-145 were killed (FIG. 3B).

SKBR-3 and BT-20 cells = test: as above; type: cell-based; settings: 48 hours
Procedure: as §1, §2

[2] = tested on: 361 breast tumor cell line; test: Trypan blue exclusion viability assay, breast tumor cell line; type: cell-based; settings: 2.5 and 5.0 μM, 48 hours
Procedure: as §1, §2

DLD-1 = test: GI50 growth inhibition, trypan blue cell count; type: cell-based, human; settings: Homo sapiens, DLD-1; cob-rectal; 96 hours after addition
Procedure: (§3) The human carcinoma cell lines listed in Table 5 below were purchased from ATCC and grown in an appropriate growth medium containing 10% fetal bovine serum (FBS) and antibiotics. The cells were plated at a cell density of 1.0×10^5 cells per […] in 6-well dishes. The cells were treated with various concentrations of (E)-fluorostyryl-4-bromobenzylsulfone 24 hours after plating in a total volume of 1 ml of medium using dimethylsulfoxide (DMSO) as a solvent for the compound. Control cells were treated with DMSO alone. The total number of viable cells was determined 96 hours after the addition of the compound by counting the cells in each well using a hemacytometer after trypan blue staining (viable cells exclude the stain). The counts were done in duplicate and the average was graphed in FIG. 8 as a percentage of the non-treated control group.

H157 = test: GI50 growth inhibition, trypan blue cell count; type: cell-based, human; settings: Homo sapiens, NCI-H157; lung, non-small cell; 96 hours after addition
Procedure: as §3

MIA-PaCa-2 = test: GI50 growth inhibition, trypan blue cell count; type: cell-based, human; settings: Homo sapiens, MIA PaCa-2; pancreatic; 96 hours after addition
Procedure: as §3

U87 = test: GI50 growth inhibition, trypan blue cell count; type: cell-based, human; settings: Homo sapiens, U-87 MG; glioblastoma; 96 hours after addition
Procedure: as §3

A431 = test: GI50 growth inhibition, trypan blue cell count; type: cell-based; settings: Homo sapiens, A-431; epidermoid; 96 hours after addition
Procedure: as §3
(§4) Applying the same protocol as in Example 34, the GI50 for compound FRI-20 treatment of the cell lines in Table 6 was determined: […]

BxPC-3 = test: GI50 growth inhibition, trypan blue cell count; type: cell-based; settings: Homo sapiens, pancreatic, 96 hours after addition
Procedure: as §3, §4

CAKI-1 = test: GI50 growth inhibition, trypan blue cell count; type: cell-based; settings: Homo sapiens, renal, 96 hours after addition
Procedure: as §3, §4

CAKI-2 = test: GI50 growth inhibition, trypan blue cell count; type: cell-based; settings: Homo sapiens, renal, 96 hours after addition
Procedure: as §3, §4

CEM = test: GI50 growth inhibition, trypan blue cell count; type: cell-based; settings: Homo sapiens, CCRF-CEM; acute lymphocytic lymphoma; 96 hours after addition
Procedure: as §3, §4

Daudi = test: GI50 growth inhibition, trypan blue cell count; type: cell-based; settings: Homo sapiens, Burkets lymphoma, 96 hours after addition
Procedure: as §3, §4

Detroit 525 = test: GI50 growth inhibition, trypan blue cell count; type: cell-based; settings: Homo sapiens; Turner Syndrome skin fibroblast; 96 hours after addition
Procedure: as §3, §4

H1299 = test: GI50 growth inhibition, trypan blue cell count; type: cell-based; settings: Homo sapiens, NCI-H1299; lung, non-small cell; 96 hours after addition
Procedure: as §3, §4

H209 = test: GI50 growth inhibition, trypan blue cell count; type: cell-based; settings: Homo sapiens, NCI-H209; lung, small cell; 96 hours after addition
Procedure: as §3, §4

H80 = test: GI50 growth inhibition, trypan blue cell count; type: cell-based; settings: Homo sapiens; glioblastoma; 96 hours after addition
Procedure: as §3, §4

HCT116 = test: GI50 growth inhibition, trypan blue cell count; type: cell-based; settings: Homo sapiens, HCT-116; cob-rectal; 96 hours after addition
Procedure: as §3, §4

Hs 416.T = test: GI50 growth inhibition, trypan blue cell count; type: cell-based; settings: Homo sapiens; squamous papilloma; 96 hours after addition
Procedure: as §3, §4

Hs 456.BT = test: GI50 growth inhibition, trypan blue cell count; type: cell-based; settings: Homo sapiens; benign skin lesion; 96 hours after addition
Procedure: as §3, §4

Hs-802.T = test: GI50 growth inhibition, trypan blue cell count; type: cell-based; settings: Homo sapiens; squamous cell carcinoma; 96 hours after addition
Procedure: as §3, §4

MES-SA = test: GI50 growth inhibition, trypan blue cell count; type: cell-based; settings: Homo sapiens, uterine sarcoma, 96 hours after addition
Procedure: as §3, §4

N417 = test: GI50 growth inhibition, trypan blue cell count; type: cell-based; settings: Homo sapiens, lung, small cell, 96 hours after addition
Procedure: as §3, §4

OvCar-3 = test: GI50 growth inhibition, trypan blue cell count; type: cell-based; settings: Homo sapiens, ovarian, 96 hours after addition
Procedure: as §3, §4

Raji = test: GI50 growth inhibition, trypan blue cell count; type: cell-based; settings: Homo sapiens, Burkets lymphoma, 96 hours after addition
Procedure: as §3, §4

SK-MEL-3 = test: GI50 growth inhibition, trypan blue cell count; type: cell-based; settings: Homo sapiens, SK-MEL3; melanoma; 96 hours after addition
Procedure: as §3, §4

SK-ov-3 = test: GI50 growth inhibition, trypan blue cell count; type: cell-based; settings: Homo sapiens, ovarian, 96 hours after addition
Procedure: as §3, §4

SW1088 = test: GI50 growth inhibition, trypan blue cell count; type: cell-based; settings: Homo sapiens, astrocytoma, 96 hours after addition
Procedure: as §3, §4

TE 354 = test: GI50 growth inhibition, trypan blue cell count; type: cell-based; settings: Homo sapiens; basal cell carcinoma; 96 hours after addition
Procedure: as §3, §4

Compound: O=S(=O)(/C=C/c1ccc(F)cc1)Cc1ccc(Cl)cc1 [Example 11, E-4-fluorostyryl 4-chlorobenzyl Sulfone]
- viability at 2.5 µM ([1]; 2.5 µM): < 25%
- viability at 5 µM ([1]; 5.0 µM): < 10%
- dead cells (SKBR-3 and BT-20 cells; 2.5 µM): ~50%
- dead cells (SKBR-3 and BT-20 cells; 5.0 µM): 75%
- viable cells [2]: 50-75%
- GI50 (DLD-1): 1 µM
- GI50 (H157): 1.5 µM
- GI50 (MIA-PaCa-2): 0.5 µM
- GI50 (U87): 2 µM
- GI50 (A431): 0.8 µM
- GI50 (BxPC-3): 0.5 µM
- GI50 (CAKI-1): 1.5 µM
- GI50 (CAKI-2): 1 µM
- GI50 (CEM): 1 µM
- GI50 (Daudi): 2 µM
- GI50 (Detroit 525): 3 µM
- GI50 (H1299): 2 µM
- GI50 (H209): 1 µM
- GI50 (H80): 1.5 µM
- GI50 (HCT116): 1 µM
- GI50 (Hs 416.T): 4 µM
- GI50 (Hs 456.BT): 3 µM
- GI50 (Hs-802.T): 4 µM
- GI50 (MES-SA): 1 µM
- GI50 (N417): 1 µM
- GI50 (OvCar-3): 1.5 µM
- GI50 (Raji): 2 µM
- GI50 (SK-MEL-3): 2 µM
- GI50 (SK-ov-3): 1.5 µM
- GI50 (SW1088): 2 µM
- GI50 (TE 354): 4 µM
